# Laboratory results: patent publication US8313920B2, “High-throughput assay for evaluating dipeptidyl peptidase I activity” (Janssen Research & Development, LLC, priority 2008, dated 2012)
# Residues, ends and D or L forms follow the SMILES beside them. No end group written: not given here. *: point of attachment. AMC = Cc1cc(=O)oc2cc(N*)ccc12
# What was measured:
# Assay type in all cases: biochemical
# [1] = target: T1, dipeptidyl peptidase I (DPPI) (Homo sapiens, UniProt P53634); experiment: Initial velocity analysis of DPPI with the 20-mer substrate, mass spectrometry; settings: 20-mer as DPPI substrate, about 2 nM DPPI, pH 7.0, about 27° C.
# T1 construct: made in house; host or cells: Hi5 insect cells (baculovirus)
# T1 sequence (P53634 25-134 limits assumed, species assumed): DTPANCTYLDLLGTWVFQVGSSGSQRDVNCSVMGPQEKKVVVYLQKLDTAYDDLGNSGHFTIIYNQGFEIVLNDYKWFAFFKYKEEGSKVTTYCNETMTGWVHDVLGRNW
# T1 sequence (P53634 231-394 limits assumed, species assumed): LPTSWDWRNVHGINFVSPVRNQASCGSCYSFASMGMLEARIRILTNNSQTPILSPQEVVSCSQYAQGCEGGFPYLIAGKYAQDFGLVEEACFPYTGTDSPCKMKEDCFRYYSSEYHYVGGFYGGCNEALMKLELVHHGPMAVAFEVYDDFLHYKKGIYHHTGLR
# T1 sequence (P53634 395-463 limits assumed, species assumed): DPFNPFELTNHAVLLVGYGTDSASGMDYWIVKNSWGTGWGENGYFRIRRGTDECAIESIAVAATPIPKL
# Description: (§1) FIG. 1. Initial velocity analysis for DPP1 kinetic constant in reaction with a 20-mer substrate (A) and a dipeptide substrate (B). (A) About 2 nM of DPPI was used in the reaction with the 20-mer substrate of […] (SEQ ID NO:1) and the reaction was monitored using a mass spectrometry system. (B) About 0.4 nM of DPP1 was used in the reaction with the dipeptide substrate of GR-α-methylcoumarin and the reaction was monitored using a rate-based format monitoring fluorescence at EM=460 nm and EX=380 nm. Initial rates are taken from kinetic data where less than 7% substrate turnover was achieved.
# (§2) Once the rate of the substrate turnover under the initial velocity condition, the kinetic constants for DPPI and the peptide substrate are calculated using the following formula (I): Y=VMAX((X+Et+KM)−((((Et+X+KM)^2)−(4XEt))^0.5))/(2Et) wherein • Y is concentration of substrate turnover • X is substrate concentration • Et is DPPI concentration • KM is substrate concentration at ½ VMAX • VMAX is substrate turnover at substrate saturation
# About 2 nM of DPPI was incubated with about 0.5, 1, 2, 4, 8, 16, 32, 64, 90, 128, 150 μM of the 20-mer substrate in the reaction buffer of 50 mM HEPES (pH 7.0), 100 mM NaCl, 0.005% Tween-20, and 2 mM of DTT or GSH. […]
# [2] = target: T1, dipeptidyl peptidase I (DPPI); experiment: Rate-based DPPI assay with dipeptide substrate GR-alpha-methylcoumarin, fluorescence, test compounds; settings: dipeptide substrate GR-α-methylcoumarin about 10 μM, about 0.4 nM DPPI, compound up to 10 mM
# Description: (§3) FIG. 2. Evaluating the DPPI-modulating activity with two test compounds using a dipeptide substrate (A) and using a 20-mer peptide substrate (B). (A) About 0.4 nM of DPP1 and about 10 μM of dipeptide substrate GR-α-methylcoumarin were used in a rate-based format and monitored with fluorescence at EM=460 nm and EX=380 nm. (B) About 2 nM of DPPI and 20 μM of the 20-mer peptide substrate […] (SEQ ID NO:1) were used in a reaction and monitored with a mass spectrometry system. 2-(piperidin-1-ylcarbonyl)phenol is represented by solid squares and 2-(piperidin-1-ylcarbonyl)aniline is represented by solid circles. R^2-values is >0.95.
# The DPPI activity was analyzed with either the dipeptide substrate, Gly-Arg, labeled with alpha-methylcoumarin (AMC), or the 20-mer peptide substrate of SEQ ID NO: 1. […] The fluorescence (Ex=380 nm, EM=460 nm) was monitored continuously from about 0 to 10 mins, using a Safire II (Tecan, Switzerland) to determine the DPPI activity. […]
# Two fragment compounds, 2-(piperidin-1-ylcarbonyl)phenol and 2-(piperidin-1-ylcarbonyl)aniline were evaluated for their activity to modulate DPPI. […] An aliquot of about 10 μl of the quenched reaction was analyzed by RapidFire™ as described in Examples 3 and 4.
# [3] = target: T1, dipeptidyl peptidase I (DPPI); experiment: DPPI assay with label-free 20-mer peptide substrate, mass spectrometry (RapidFire, SIM), screening of test compounds; settings: for IC50: 20-mer peptide substrate (SEQ ID NO:1) 20 μM, about 2 nM DPPI, 27° C., 60 min, semi-log plot analysis, read-out: IC50 of DPPI inhibition; for effect on DPPI activity in the reaction with the 20-mer substrate: 20-mer peptide substrate, mass spectrometry
# Description: as §3
# When a candidate compound is identified, the IC50 of the DPPI inhibition by the candidate compound is calculated using the formula (II):
# [formula] wherein • Si is net substrate turnover signal of sample • So is net substrate turnover signal of positive control • Smin is net am signal of negative control • I is concentration of a candidate compound wherein a positive control is a reaction without any test compound and a negative control is a reaction without DPPI or substrate.
# About 2 nM of DPPI was incubated with about 0.5, 1, 2, 4, 8, 16, 32, 64, 90, 128, 150 μM of the 20-mer substrate in the reaction buffer of 50 mM HEPES (pH 7.0), 100 mM NaCl, 0.005% Tween-20, and 2 mM of DTT or GSH. The reaction was incubated at about 27° C. and terminated with about 1/10 volume of 2% trifluoroacetic acid at multiple time points at 0, 2, 5, 10, 20, 30, 45, 60, 75, 90, and 120 mins. An aliquot of about 10 μl of the quenched reaction was used for detecting the substrate turnover by RapidFire (BioTrove, Woburn, Mass.) with a C4 cartridge. The reaction was loaded onto the cartridge, which was equilibrated with the stationary phase of 0.1% formic acid+0.02% TFA and developed with the mobile phase of 90% MeCN+0.1% formic acid+0.02% TFA at about 1 ml per min. The 20-mer substrate at SIM 1112 amu (atomic mass unit) and the corresponding 18-mer product at SIM 1019 were monitored using Agilent 1100 series LCMSD (Santa Clara, Calif.) in the positive ion mode monitoring.
# Two fragment compounds, 2-(piperidin-1-ylcarbonyl)phenol and 2-(piperidin-1-ylcarbonyl)aniline were evaluated for their activity to modulate DPPI. A dilution series of the compounds of about 0.1 mM to about 100 mM was made in 100% DMSO. About one μl of a test compound and about 8 μl of about 3.75 nM DDP-1 were added to a 384-well polypropylene plate (Greiner Bio-One North America Inc., Monroe, N.C.). The proteolytic reaction was initiated by the addition of about 1 μl of 200 μM substrate. […] An aliquot of about 10 μl of the quenched reaction was analyzed by RapidFire™ as described in Examples 3 and 4.
# [4] = target: T1, dipeptidyl peptidase I (DPPI); experiment: Initial velocity analysis of DPPI with the dipeptide substrate Gly-Arg-AMC, fluorescence; settings: dipeptide GR-AMC as DPPI substrate, about 0.4 nM DPPI, pH 7.0
# Description: as §1, §2
# The DPPI activity was analyzed with either the dipeptide substrate, Gly-Arg, labeled with alpha-methylcoumarin (AMC), or the 20-mer peptide substrate of SEQ ID NO: 1. For the dipeptide substrate, about 0.4 nM of DPPI was incubated with about 1, 2, 5, 10, 25, 50, 100, 150, 300, 600 μM of the dipeptide substrate in 10 ul of reaction buffer of 50 mM Hepes (pH 7.0), 100 mM NaCl, 0.005% Tween-20, and 2 mM of DTT or GSH. The fluorescence (Ex=380 nm, EM=460 nm) was monitored continuously from about 0 to 10 mins, using a Safire II (Tecan, Switzerland) to determine the DPPI activity. The condition for the 20-mer peptide substrate was the same as described above.
Compound,Km [1] [µM],effect on DPPI activity in the reaction with the dipeptide substrate [2],IC50 [3] [µM],effect on DPPI activity in the reaction with the 20-mer substrate [3],2nd order rate constant [4] [M⁻¹ s⁻¹],Km [4] [µM],kcat [4] [Mmin^−1]
GEIIGGTECKPHSRPYMAYL [20-mer],62,,,,,,
Nc1ccccc1C(=O)N1CCCCC1 [2-(piperidin-1-ylcarbonyl)aniline],,"neither compound, even in high concentration of 10 mM, affected the DPPI activity",~1000,modulated the DPPI activity in a concentration dependent manner,,,
O=C(c1ccccc1O)N1CCCCC1 [2-(piperidin-1-ylcarbonyl)phenol],,"neither compound, even in high concentration of 10 mM, affected the DPPI activity",~100,modulated the DPPI activity in a concentration dependent manner,,,
"Cc1cc(=O)oc2cc(NC(=O)[C@H](CCCNC(=N)N)NC(=O)CN)ccc12 [Dipeptide, Gly-Arg, labeled with alpha-methylcoumarin (AMC)] (H-Gly-Arg-{AMC})",,,,,1.48e+06,64,5667
